Assay results from publication PMC10947015, “Constraining and Modifying Peptides Using Pd‐Mediated Cysteine Allylation” (Chembiochem, 2023).
pKd: −log10 of the molar value. Like-named read-outs stand apart in the source and are kept apart here. Starred links: 1 amine or outer side, 2 acyl side, 3 side chain; linkers in the order of their positions; H or OH if unused. Positions of bridges follow the written chain, without caps; N, C: chain ends. Non-standard residues stand in square brackets, D forms with d. Residues, ends and D or L forms follow the SMILES beside them. Groups on a side chain read outwards from the residue. *: point of attachment. X1 = O=C(CCCC[C@@H]1SC[C@@H]2NC(=O)N[C@@H]21)NCCCOCCOCCOCCCN*; Tyr(3-NO2) = N[C@@H](Cc1ccc(O)c([N+](=O)[O-])c1)C(=O)O; Glutaryl = O=C(CCCC(=O)[*:2])[*:1]; Hyp = O=C(O)[C@@H]1C[C@@H](O)CN1; X2 = C(=C/C[*:2])/C[*:1]; X3 = C(#CC[*:2])C[*:1]

Target: T1, integrin α3β1 (Homo sapiens, UniProt P05556+P26006)
T1 construct: integrin α3β1 expressed on human MDA‐MB231 cells; endogenous in cells; host or cells: MDA-MB231 (human)
T1 sequence (P26006 33-872 limits assumed): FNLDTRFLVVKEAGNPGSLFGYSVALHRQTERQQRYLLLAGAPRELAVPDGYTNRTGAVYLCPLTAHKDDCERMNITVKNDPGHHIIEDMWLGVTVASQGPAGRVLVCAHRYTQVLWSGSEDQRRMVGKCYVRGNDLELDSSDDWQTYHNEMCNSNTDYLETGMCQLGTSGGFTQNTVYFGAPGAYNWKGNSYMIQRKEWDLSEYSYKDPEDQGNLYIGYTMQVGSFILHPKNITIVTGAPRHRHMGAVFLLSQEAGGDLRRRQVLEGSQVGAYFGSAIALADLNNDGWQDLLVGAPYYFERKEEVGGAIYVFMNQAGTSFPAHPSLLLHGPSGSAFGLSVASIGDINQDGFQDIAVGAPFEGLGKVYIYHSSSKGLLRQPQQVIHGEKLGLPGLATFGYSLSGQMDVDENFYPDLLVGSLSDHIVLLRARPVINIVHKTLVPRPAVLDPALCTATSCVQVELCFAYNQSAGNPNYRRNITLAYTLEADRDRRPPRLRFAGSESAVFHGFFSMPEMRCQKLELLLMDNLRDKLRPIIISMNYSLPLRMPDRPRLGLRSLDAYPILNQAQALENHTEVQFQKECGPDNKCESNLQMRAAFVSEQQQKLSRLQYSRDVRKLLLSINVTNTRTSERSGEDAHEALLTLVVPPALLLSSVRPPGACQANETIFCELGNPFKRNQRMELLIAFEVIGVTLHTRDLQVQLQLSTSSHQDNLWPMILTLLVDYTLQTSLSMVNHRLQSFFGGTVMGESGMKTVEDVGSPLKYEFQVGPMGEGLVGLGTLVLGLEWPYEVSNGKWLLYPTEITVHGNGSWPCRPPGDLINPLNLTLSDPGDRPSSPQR
T1 sequence (P26006 878-1051 limits assumed): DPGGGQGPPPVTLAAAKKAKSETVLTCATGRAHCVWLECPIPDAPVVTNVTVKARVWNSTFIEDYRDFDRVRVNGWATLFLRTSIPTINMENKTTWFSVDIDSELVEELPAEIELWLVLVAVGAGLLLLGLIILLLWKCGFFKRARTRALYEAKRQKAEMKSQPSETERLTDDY
T1 sequence (P05556 21-798): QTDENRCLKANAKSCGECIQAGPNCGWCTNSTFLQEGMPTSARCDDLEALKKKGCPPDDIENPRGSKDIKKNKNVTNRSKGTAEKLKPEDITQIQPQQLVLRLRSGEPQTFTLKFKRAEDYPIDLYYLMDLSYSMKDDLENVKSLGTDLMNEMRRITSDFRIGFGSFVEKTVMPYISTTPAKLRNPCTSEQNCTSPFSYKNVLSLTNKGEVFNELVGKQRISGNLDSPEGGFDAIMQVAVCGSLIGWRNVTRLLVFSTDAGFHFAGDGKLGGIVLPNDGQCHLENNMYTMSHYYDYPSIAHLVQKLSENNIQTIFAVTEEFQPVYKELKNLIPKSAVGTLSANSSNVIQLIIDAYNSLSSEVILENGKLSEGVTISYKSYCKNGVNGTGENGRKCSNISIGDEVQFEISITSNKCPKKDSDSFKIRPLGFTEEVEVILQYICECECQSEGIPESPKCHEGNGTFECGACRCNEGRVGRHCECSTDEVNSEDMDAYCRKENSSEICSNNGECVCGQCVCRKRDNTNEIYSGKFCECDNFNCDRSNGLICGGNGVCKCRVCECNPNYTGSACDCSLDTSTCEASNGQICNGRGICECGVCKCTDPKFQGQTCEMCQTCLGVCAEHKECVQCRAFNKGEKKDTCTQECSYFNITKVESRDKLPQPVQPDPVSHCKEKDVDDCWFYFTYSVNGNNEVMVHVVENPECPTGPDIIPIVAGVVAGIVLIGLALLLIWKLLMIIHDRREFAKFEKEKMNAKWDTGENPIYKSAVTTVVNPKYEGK
Experiment: Binding of stapled peptides to integrin α3β1 on MDA-MB231 cells, flow cytometry with streptavidin-PerCP-Cy5.5 staining
Method: The obtained stapled peptides P1 a–g were tested for binding to integrin α3β1 expressed on human MDA‐MB231 cells (Figure S2). Upon incubation for 30 min with different concentrations of the stapled P1 a–g variants, streptavidin‐PerCP‐Cy5.5 was added after three washing steps to allow detection by flow cytometry. Peptide P2 (P1 in its disulfide cyclized form) served as a positive control, which bound with an apparent affinity of 100 nM.[23]
Binding of stapled peptides to murine 4T1 cells and human MDA-MB231 cells
Figure S2: Determination of Kd values for peptides P1a-h based on streptavidin-PerCP-Cy5.5 staining of integrin- containing cells incubated with different peptide concentrations. A: Peptides P1a-c in mouse 4T1 cells. B: P1a-c in human MDA-MB231 cells. C: Peptides P1d-h in human MDA-MB231 cells.
4T1 and MDA-MB231 cells were grown in culture according to the suppliers’ guidelines, and cells were detached by using trypsin/EDTA (PAN, diluted 1:2 with PBS). Resuspended cells in complete culture medium were centrifuged and washed once with washing buffer [HEPES (pH 7.3, 10 mM) in NaCl (0.9 %)] at 4°C and resuspended (2x10^6 cells mL-1) in peptide blocking buffer (PBB): HEPES (pH 7.3, 10 mM) in NaCl (0.9%) + KCl (5 mM), BSA (3%) + FCS (5 %) + MnCl2 (4 mM). Peptide samples were prepared at twice the final concentration in PBB and added to the cells to give final peptide concentrations of 1 nM - 3 µM. Cells (1x105 per 50 µL) were aliquoted into FACS tubes and incubated for 10 min on ice before addition of the peptide samples (50 µL). […]
PerCP-Cy5.5 (100 µL, Beckton Dickinson, 0.5 mg mL-1) in PBB. […] Cells were kept on ice until analysis with a FACS Canto instrument and 10000 events/sample were recorded. Data were evaluated with Flowing software. Gating was performed on single and live cells, and histograms of PerCP–Cy5.5 fluorescence were plotted. Kd values were calculated by fitting the data to a one-site specific binding model [Y=BmaxVX/(Kd+X)] by using GraphPad Prism, and errors represent the standard error of the fit.

[1] = Figure 2, integrin α3β1, flow cytometry binding, read-out: Kd

NC(=O)C[C@@H]1NC(=O)[C@@H]2C[C@@H](O)CN2C(=O)CNC(=O)[C@H](Cc2ccc(O)c([N+](=O)[O-])c2)NC(=O)CNC(=O)[C@@H](CC(=O)O)NC(=O)[C@H](N)CSC/C=C\CSC[C@H](C(=O)NCC(=O)NCC(=O)N[C@@H](CCCCNC(=O)CCCC(=O)NCCCOCCOCCOCCCNC(=O)CCCC[C@@H]2SC[C@@H]3NC(=O)N[C@@H]32)C(N)=O)NC1=O [P1 a] (H-[dC][dD]G[Tyr(3-NO2)]G[Hyp]N[dC]GGK([Glutaryl-X1])-NH2; linker 1-8 via X2)
pKd [1]: 4.89

NC(=O)C[C@@H]1NC(=O)[C@@H]2C[C@@H](O)CN2C(=O)CNC(=O)[C@H](Cc2ccc(O)c([N+](=O)[O-])c2)NC(=O)CNC(=O)[C@@H](CC(=O)O)NC(=O)[C@H](N)CSCC#CCSC[C@H](C(=O)NCC(=O)NCC(=O)N[C@@H](CCCCNC(=O)CCCC(=O)NCCCOCCOCCOCCCNC(=O)CCCC[C@@H]2SC[C@@H]3NC(=O)N[C@@H]32)C(N)=O)NC1=O [P1 d] (H-[dC][dD]G[Tyr(3-NO2)]G[Hyp]N[dC]GGK([Glutaryl-X1])-NH2; linker 1-8 via X3)
pKd (integrin α3β1 expressed on human MDA-MB231 cells, 30 min incubation on ice, streptavidin-PerCP-Cy5.5, flow cytometry, one-site specific binding fit, read-out: binding affinity): ~5.00

NC(=O)C[C@@H]1NC(=O)[C@@H]2C[C@@H](O)CN2C(=O)CNC(=O)[C@H](Cc2ccc(O)c([N+](=O)[O-])c2)NC(=O)CNC(=O)[C@@H](CC(=O)O)NC(=O)[C@H](N)CSSC[C@H](C(=O)NCC(=O)NCC(=O)N[C@@H](CCCCNC(=O)CCCC(=O)NCCCOCCOCCOCCCNC(=O)CCCC[C@@H]2SC[C@@H]3NC(=O)N[C@@H]32)C(N)=O)NC1=O [Peptide P2, reference compound] (H-[dC][dD]G[Tyr(3-NO2)]G[Hyp]N[dC]GGK([Glutaryl-X1])-NH2; disulfide 1-8)
pKd [1]: 7.00
